Paper PMC2784226, “Degradation of Host Sphingomyelin Is Essential for Leishmania Virulence” (PLoS Pathogens, 2009)

Biological target: T1, ScISC1 (Saccharomyces cerevisiae, UniProt P40015)
T1 construct: gene ISC1; full-length ORF expressed in L. major iscl- null mutant; whole cell lysate
Assay: TLC of NBD-ceramide, intact parasites and whole cell lysate
Type: cell-based
Conditions: labelled compound; expressed in iscl- null mutant

T1 sequence (P40015 whole entry): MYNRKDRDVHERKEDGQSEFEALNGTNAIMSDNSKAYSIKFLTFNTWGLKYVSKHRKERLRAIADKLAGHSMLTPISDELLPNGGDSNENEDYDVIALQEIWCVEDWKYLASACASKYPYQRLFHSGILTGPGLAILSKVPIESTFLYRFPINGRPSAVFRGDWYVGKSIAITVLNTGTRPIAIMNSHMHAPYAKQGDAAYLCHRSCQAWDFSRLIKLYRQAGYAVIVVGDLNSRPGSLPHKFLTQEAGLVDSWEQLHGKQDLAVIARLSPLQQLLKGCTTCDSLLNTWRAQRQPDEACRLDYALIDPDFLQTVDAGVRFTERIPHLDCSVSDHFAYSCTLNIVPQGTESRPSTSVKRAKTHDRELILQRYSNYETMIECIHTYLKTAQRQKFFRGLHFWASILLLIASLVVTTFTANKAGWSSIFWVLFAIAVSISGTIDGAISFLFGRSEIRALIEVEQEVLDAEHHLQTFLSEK

CCCCCCCCCCCCC/C=C/[C@@H](O)[C@H](COP(=O)([O-])OCC[N+](C)(C)C)NC(=O)CCCCCNc1ccc([N+](=O)[O-])c2nonc12 [NBD C6-sphingomyelin, N-[6-[(7-nitro-2-1,3-benzoxadiazol-4-yl)amino]hexanoyl]-sphingosine-1-phosphocholine]
TLC of NBD-ceramide, intact parasites and whole cell lysate: expression of ScISC1 restored the ability to degrade sphingomyelin in iscl^−
